Earlier results on one compound are cited in US8431806B2, “Liposomal formulations of anthracycline agents and cytidine analogs” (Celator Pharmaceuticals, Inc., priority 2004, dated 2013).

The conditions of the data set: in vivo.

Each structure is given as a SMILES string.

In the case of `COc1cccc2c1C(=O)c1c(O)c3c(c(O)c1C2=O)C[C@@](O)(C(C)=O)C[C@@H]3O[C@H]1C[C@H](N)[C@H](O)[C@H](C)O1` [Daunorubicin], the half-life for elimination was 19 h. Also, the oral absorption entry (po) is reported as “low”.
